US4320057A, “Aryl--pyrrolo--thiazepin--diones and aryl--piperidino--thiazepin--diones” (American Home Products Corporation, priority 1981, dated 1982)

Target: T1, angiotensin converting enzyme (Oryctolagus cuniculus, UniProt P12822)
T1 construct: A crude angiotensin converting enzyme supernatant is obtained by blending 1 gm. of rabbit lung acetone powder; tissue PelFreez Biologicals; host or cells: rabbit lung acetone powder, crude 40,000 xg supernatant
T1 sequence (P12822 34-1310): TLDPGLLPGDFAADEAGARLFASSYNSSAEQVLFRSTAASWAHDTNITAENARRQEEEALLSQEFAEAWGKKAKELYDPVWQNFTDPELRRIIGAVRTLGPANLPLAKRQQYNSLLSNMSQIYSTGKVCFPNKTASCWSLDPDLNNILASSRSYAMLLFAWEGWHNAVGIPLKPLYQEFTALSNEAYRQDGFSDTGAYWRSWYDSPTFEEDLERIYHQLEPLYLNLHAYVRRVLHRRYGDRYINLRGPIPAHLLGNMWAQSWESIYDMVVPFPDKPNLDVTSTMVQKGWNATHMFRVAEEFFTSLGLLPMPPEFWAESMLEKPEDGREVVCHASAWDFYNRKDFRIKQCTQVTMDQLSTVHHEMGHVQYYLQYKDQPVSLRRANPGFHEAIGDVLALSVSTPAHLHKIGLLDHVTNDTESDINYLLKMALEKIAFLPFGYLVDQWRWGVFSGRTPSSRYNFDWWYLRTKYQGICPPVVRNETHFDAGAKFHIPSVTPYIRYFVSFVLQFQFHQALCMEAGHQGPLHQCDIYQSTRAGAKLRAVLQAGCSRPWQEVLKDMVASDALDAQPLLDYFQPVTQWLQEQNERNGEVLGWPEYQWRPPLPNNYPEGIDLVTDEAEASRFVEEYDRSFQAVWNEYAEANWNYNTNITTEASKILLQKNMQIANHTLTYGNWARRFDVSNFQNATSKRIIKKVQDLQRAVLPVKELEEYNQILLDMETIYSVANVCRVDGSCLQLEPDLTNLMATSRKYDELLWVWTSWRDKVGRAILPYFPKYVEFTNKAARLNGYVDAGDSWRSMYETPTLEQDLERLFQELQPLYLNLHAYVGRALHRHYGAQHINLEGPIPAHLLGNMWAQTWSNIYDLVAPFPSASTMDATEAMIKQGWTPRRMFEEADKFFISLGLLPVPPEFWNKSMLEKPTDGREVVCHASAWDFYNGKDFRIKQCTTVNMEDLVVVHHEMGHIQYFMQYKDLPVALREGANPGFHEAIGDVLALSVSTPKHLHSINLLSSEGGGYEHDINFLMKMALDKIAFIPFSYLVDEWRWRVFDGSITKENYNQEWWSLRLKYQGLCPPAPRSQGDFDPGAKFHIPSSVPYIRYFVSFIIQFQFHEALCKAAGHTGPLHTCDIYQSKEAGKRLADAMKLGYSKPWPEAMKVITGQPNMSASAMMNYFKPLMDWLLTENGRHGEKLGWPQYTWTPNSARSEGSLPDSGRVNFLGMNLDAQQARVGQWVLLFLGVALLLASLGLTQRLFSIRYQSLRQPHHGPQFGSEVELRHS
Assay: incubation of hippuryl-L-histidyl-L-leucine with angiotensin converting enzyme (HHL hydrolysis)
Type: biochemical, rabbit
Conditions: 100 ng/ml; read-out: inhibition of angiotensin converting enzyme in vitro
Protocol: The activity of the compounds of this invention was established by incubation of hippuryl-L-histidyl-L-leucine at 37° C. with angiotensin converting enzyme by the following procedure:
A crude angiotensin converting enzyme supernatant is obtained by blending 1 gm. of rabbit lung acetone powder (PelFreez Biologicals) with 35 ml of 50 mM (buffered) potassium phosphate, pH 8.3 and centrifuging for 45 min. at 40,000 xg.
The specific angiotensin converting enzyme substrate Hippuryl-L-histidyl-L-leucine (HHL-Sigma Chem. Co.) is prepared at 5 mM in 200 mM potassium phosphate buffer containing 757 mM NaCl at pH 8.3.
Incubation for the assay of HHL hydrolysis by angiotensin converting enzyme is carried out in a 37° C. gyrorotary incubator in disposable 13×100 mm tubes. Each 0.25 ml assay mixture contains the following components at the final concentrations: potassium phosphate buffer, 100 mM; NaCl, 300 mM; HHL, 5 mM; and enzyme 0.15 ml (10 mU approx.) added last to initiate the reaction. Zero time controls have 0.25 ml of 2N HCl added before the enzyme. The timed reactions are terminated with acid at 30 min. similarly and the hippuric acid freed from substrate is extracted into 1.5 ml of ethylacetate by vortex mixing for 15 sec. […]
The hippuric acid is resuspended in 1.0 ml of water, the absorbance at 228 nm is determined, and the amount present is calculated from a standard curve. […]

inhibition at 0.1 µg/mL: 5%
SMILES: CC(CSC(=O)c1ccccc1)C(=O)N1C(C(=O)O)CCC1c1ccccc1 (stereo not drawn) [α-acid of Example 7, α-and β-5-Phenyl-1-(3-benzoylthio-2-methyl-1-oxopropyl)proline]
